Measured values: patent US9193704B2, “Hydantoin derivatives as KV3 inhibitors” (AUTIFONY THERAPEUTICS LIMITED, priority 2011, dated 2015)

Tests used:
p-glycoprotein = experiment: In vivo pharmacokinetic assay with the PgP transport inhibitor Elacridar; conditions: rat; Elacridar 3 mg/kg intravenous shortly before oral 1 mg/kg; 0.5 h; indicates absence of notable p-glycoprotein interactions
Experimental: Adult male rats (Charles River, Italy) were dosed with test compound orally at 1 mg/kg (5 ml/kg, in 5% v/v DMSO, 0.5% w/v HPMC in water) and intravenously at 0.5 mg/kg (2 ml/kg, in 5% v/v DMSO 40% w/v PEG400 in saline). After oral administration, blood samples were collected under deep Isofluorane anesthesia from the portal vein and heart of each rat (1 rat per time point). After intravenous administration, serial blood samples were collected from the lateral tail vein of each rat. A further group of rats (n=1 per test compound) received a single intravenous administration of the PgP transport inhibitor, Elacridar (3 mg/kg) shortly before the oral administration of the test compound at 1 mg/kg, as above. Blood and brain samples were collected at a single timepoint of 0.5 h after dose administration for these animals. In all cases, blood samples were collected into potassium EDTA tubes.
Blood and brain samples were assayed for test compound concentration using a method based on protein precipitation with acetonitrile followed by HPLC/MS-MS analysis with an optimized analytical method.
The concentrations of test compound in blood (expressed as ng/ml) and brain (expressed as ng/g) at the different time points following either oral or intravenous dosing were analysed using a non-compartmental pharmacokinetic model using WinNonLin Professional version 4.1. The following parameters were derived:
Oral dosing: Cmax, time of maximum concentration (Tmax), AUC, bioavailability (F %), fraction absorbed (Fa %), blood to brain ratio (AUC BB), and Fold-change in AUC BB in the presence of Elacridar.

[1] = molecular target: T1, human Kv3.1 channels (hKv3.1) (Homo sapiens, UniProt P48547); experiment: IonWorks Quattro electrophysiology, potentiation of hKv3.1 currents; type: cell-based; conditions: between Kv3.1 and Kv3.2 channels
T1 construct: expressed in transfected cells; host or cells: CHO/Gam/E1A-clone22 (CGE22) cells, CHO-K1-derived, transiently transduced with BacMam pFBM/human Kv3.1
T1 sequence (P48547 1-511): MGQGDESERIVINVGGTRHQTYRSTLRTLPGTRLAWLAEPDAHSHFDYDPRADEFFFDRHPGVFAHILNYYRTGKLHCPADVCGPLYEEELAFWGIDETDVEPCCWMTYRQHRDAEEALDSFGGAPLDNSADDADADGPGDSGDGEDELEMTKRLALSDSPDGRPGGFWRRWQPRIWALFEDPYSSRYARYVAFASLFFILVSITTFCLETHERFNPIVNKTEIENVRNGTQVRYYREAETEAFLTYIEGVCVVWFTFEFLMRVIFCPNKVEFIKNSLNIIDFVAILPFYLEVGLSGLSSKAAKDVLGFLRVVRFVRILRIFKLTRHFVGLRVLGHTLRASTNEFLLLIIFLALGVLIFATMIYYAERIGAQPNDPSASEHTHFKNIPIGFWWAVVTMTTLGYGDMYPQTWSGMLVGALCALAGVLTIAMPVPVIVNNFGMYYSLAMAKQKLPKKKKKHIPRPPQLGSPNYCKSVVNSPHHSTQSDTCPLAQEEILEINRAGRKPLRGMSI
Source text: The ability of the compounds of the invention to modulate the voltage-gated potassium channel subtypes Kv3.2/3.1 may be determined using the following assay.
This cell line was designed to be an improved CHO-K1-based host for enhanced recombinant protein expression as compared to wild type CHO-K1. The cell line was generated following the transduction of CHO-K1 cells with a BacMam virus expressing the Adenovirus-Gam1 protein and selection with Geneticin-G418, to generate a stable cell line, CHO/Gam-A3. CHO/Gam-A3 cells were transfected with pCDNA3-E1A-Hygro, followed by hygromycin-B selection and FACS sorting to obtain single-cell clones. BacMam-Luciferase and BacMam-GFP viruses were then used in transient transduction studies to select the clone based on highest BacMam transduction and recombinant protein expression. […]
Experiments were conducted at room temperature using IonWorks Quattro™ planar array electrophysiology technology (Molecular Devices Corp.) with PatchPlate™ PPC. […] Planar electrode hole resistances(Rp) were determined by applying a 10 mV voltage step across each well. […] Test pulses protocol may be performed in the absence (pre-read) and presence (post-read) of the test compound. Pre- and post-reads may be separated by the compound addition followed by a 3 minute incubation. […]

[2] = tested on: amphetamine induced hyperlocomotion; experiment: Mouse model of amphetamine induced hyperlocomotion; type: in vivo; conditions: 60 mg/kg, 60 minute period following amphetamine administration, P<0.01
Experimental: Example 33 was tested in the_mouse model of amphetamine induced hyperlocomotion described in Example 93 of WO2011/069951A1.

| SMILES | change in AUC BB in the presence of Elacridar (p-glycoprotein) | difference in pEC50 values between the two channels [1] | increase in locomotor activity induced by amphetamine [2] |
| --- | --- | --- | --- |
| CC1(C)NC(=O)N(c2ccc(Oc3ccc4c(c3)C(C(C)(C)C)OC4)nc2)C1=O (single isomer, unassigned) [Example 50, 3-[6-[(3-tert-butyl-1,3-dihydroisobenzofuran-5-yl)oxy]-3-pyridyl]-5,5-dimethyl-imidazolidine-2,4-dione] | limited change | – | – |
| CC1(C)NC(=O)N(c2ccc(Oc3ccc4c(c3)C3(CCC3)OC4)nc2)C1=O [Example 58, 5,5-dimethyl-3-(6-spiro[1H-isobenzofuran-3,1′-cyclobutane]-5-yloxy-3-pyridyl)imidazolidine-2,4-dione] | limited change | – | – |
| CC1(C)NC(=O)N(c2ccc(Oc3ccc4c(c3)C(C)(C(F)(F)F)OC4)nc2)C1=O (single isomer, unassigned) [Example 52, 5,5-dimethyl-3-[6-[[3-methyl-3-(trifluoromethyl)-1H-isobenzofuran-5-yl]oxy]-3-pyridyl]imidazolidine-2,4-dione] | limited change | – | – |
| CC[C@H]1NC(=O)N(c2ccc(Oc3cccc4c3C3(CC3)CO4)nc2)C1=O [Reference Example 87, (5R)-5-ethyl-3-[6-(spiro[1-benzofuran-3,1′-cyclopropan]-4-yloxy)-3-pyridinyl]-2,4-imidazolidinedione] | – | 0.7 log unit | – |
| CC1(C)NC(=O)N(c2cnc(Oc3ccc4c(c3)C3(CCCC3)OC4)nc2)C1=O [Example 12, 5,5-dimethyl-3-(2-spiro[1H-isobenzofuran-3,1′-cyclopentane]-5-yloxypyrimidin-5-yl)imidazolidine-2,4-dione] | limited change | – | – |
| CC[C@@]1(C)NC(=O)N(c2ccc(Oc3ccc4c(c3)C(C)(C)OC4)nc2)C1=O [Example 33, (5R)-3-[6-[(3,3-dimethyl-1H-isobenzofuran-5-yl)oxy]-3-pyridyl]-5-ethyl-5-methyl-imidazolidine-2,4-dione] | limited change | – | completely prevented |
| CC1(C)NC(=O)N(c2ccc(Oc3cccc4c3C3(CC3)CO4)nc2)C1=O [Reference Example 88, 5,5-dimethyl-3-[6-(spiro[1-benzofuran-3,1′-cyclopropan]-4-yloxy)-3-pyridinyl]-2,4-imidazolidinedione] | – | 0.7 log unit | – |
